Measurements from patent US8686050B2, “Diglycidic ether derivative therapeutics and methods for their use” (British Columbia Cancer Agency Branch, priority 2008, dated 2014).
Several values for one entry are separate records, joined by “and”; a condition that tells them apart may be missing. Identical values can stand only once.

Key:
[1] = molecular target: T1, Gal4 DBD-AR1-558 (AR NTD) (Homo sapiens, UniProt P10275); assay: Transactivation of the AR NTD (Gal4 DBD-AR1-558 with 5xGal4UAS-luciferase) in LNCaP cells; format: cell-based; conditions: for inhibition at 20 µM: read-out: inhibition of Fsk activation of Ga14ARN
T1 construct: cloning amino acids 1-558 of the human AR NTD into the C-terminus of Gal4 DBD; expressed in transfected cells; host or cells: LNCaP
T1 sequence (P10275 1-558): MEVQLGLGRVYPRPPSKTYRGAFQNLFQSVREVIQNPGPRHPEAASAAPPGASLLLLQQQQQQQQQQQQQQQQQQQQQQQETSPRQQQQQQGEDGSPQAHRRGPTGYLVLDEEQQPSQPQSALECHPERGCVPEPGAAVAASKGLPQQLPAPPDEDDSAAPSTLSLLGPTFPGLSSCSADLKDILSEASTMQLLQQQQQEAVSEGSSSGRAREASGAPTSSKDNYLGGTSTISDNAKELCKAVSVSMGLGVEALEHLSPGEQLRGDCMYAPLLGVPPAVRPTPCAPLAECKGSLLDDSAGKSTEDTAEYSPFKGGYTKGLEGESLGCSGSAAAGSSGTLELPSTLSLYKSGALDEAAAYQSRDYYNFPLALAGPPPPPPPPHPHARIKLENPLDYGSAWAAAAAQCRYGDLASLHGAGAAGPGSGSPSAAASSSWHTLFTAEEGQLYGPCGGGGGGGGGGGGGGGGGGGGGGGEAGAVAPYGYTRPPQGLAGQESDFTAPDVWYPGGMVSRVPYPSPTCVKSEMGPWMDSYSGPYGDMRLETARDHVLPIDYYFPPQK
From the text: These fractions were next tested for their ability to inhibit the AR NTD. […] Extracts identified above were screened by such assays as well as some compounds purchased from commercial suppliers.
Expression vectors for these chimeric proteins were cotransfected into LNCaP cells with a reporter gene containing the Gal4-binding site as cis-acting elements (p5×Gal4UAS-TATA-luciferase).

AR [2] = molecular target: T2, AR (Homo sapiens, UniProt P10275, T878A); assay: PSA (6.1 kb)-luciferase (p6.1luc) reporter in LNCaP cells; format: cell-based; parameters: LNCaP cells express endogenous AR and secrete prostate-specific antigen (PSA); endogenous in cells; host or cells: LNCaP
T2 sequence (P10275 1-920 T878A): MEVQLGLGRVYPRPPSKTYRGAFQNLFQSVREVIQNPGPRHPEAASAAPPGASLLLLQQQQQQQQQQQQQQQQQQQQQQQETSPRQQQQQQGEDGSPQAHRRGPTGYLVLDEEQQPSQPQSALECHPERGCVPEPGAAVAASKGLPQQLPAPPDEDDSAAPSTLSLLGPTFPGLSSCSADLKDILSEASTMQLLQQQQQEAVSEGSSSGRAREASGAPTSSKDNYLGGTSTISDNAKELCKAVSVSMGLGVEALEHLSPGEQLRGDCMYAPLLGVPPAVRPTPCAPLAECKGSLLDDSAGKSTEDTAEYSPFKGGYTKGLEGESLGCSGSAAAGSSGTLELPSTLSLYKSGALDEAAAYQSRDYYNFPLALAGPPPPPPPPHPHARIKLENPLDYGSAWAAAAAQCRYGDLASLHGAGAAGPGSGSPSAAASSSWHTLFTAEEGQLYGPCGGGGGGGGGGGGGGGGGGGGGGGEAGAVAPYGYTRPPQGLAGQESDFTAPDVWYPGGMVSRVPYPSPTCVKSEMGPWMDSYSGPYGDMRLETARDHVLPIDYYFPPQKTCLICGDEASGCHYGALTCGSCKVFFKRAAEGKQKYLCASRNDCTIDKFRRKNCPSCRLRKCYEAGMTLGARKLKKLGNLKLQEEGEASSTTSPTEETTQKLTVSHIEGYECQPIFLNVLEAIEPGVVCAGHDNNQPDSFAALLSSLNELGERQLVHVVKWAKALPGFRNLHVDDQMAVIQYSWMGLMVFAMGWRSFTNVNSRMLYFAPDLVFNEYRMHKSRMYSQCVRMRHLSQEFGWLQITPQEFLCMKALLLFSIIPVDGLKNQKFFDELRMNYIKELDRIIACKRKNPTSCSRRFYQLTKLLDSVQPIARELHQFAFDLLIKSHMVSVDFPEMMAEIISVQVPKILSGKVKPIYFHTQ
From the text: LNCaP cells were employed initially for all experiments because they are well-differentiated human prostate cancer cells in which ligand-independent activation of the AR by FSK has been characterized (Nazareth et al 1996 J. Biol. Chem. 271, 19900-19907; and Sadar 1999 J. Biol. Chem. 274, 7777-7783). LNCaP cells express endogenous AR and secrete prostate-specific antigen (PSA) (Horoszewicz et al 1983 Cancer Res. 43, 1809-1818). LNCaP cells can be grown either as monolayers in cell culture or as tumors in the well-characterized xenograft model that progresses to androgen independence in castrated hosts (Sato et al 1996 J. Steroid Biochem. Mol. Biol. 58, 139-146; Gleave et al 1991 Cancer Res. 51, 3753-3761; Sato et al 1997 Cancer Res. 57, 1584-1589; and Sadar et al 2002 Mol. Cancer. Ther. 1(8), 629-637). […] Small molecules that specifically target the AR-NTD should have no effect on PC3 cells. This means that they should not alter the proliferation of PC3 cells if they specifically block the AR to mediate their inhibitory effects. R1881 was employed since it is stable and avoids problems associated with the labile physiological ligand dihydrotestosterone (DHT). Reporter specificity may be determined using several alternative reporter gene constructs. Some well characterized ARE-driven reporter gene constructs that have been used extensively are the PSA (6.1 kb) enhance/promoter which contains several AREs and is highly inducible by androgens as well as by FSK (Ueda et al 2002 A J. Biol. Chem. 277, 7076-7085) and the ARR3-thymidine kinase (tk)-luciferase, which is an artificial reporter construct that contains three tandem repeats of the rat probasin ARE1 and ARE2 regions upstream of a luciferase reporter (Snoek et al 1996 J. Steroid Biochem. Mol. Biol. 59, 243-250).
To ensure that the inhibitory effects of PNG 01-185 extract on endogenous PSA protein was at the transcriptional level, reporter gene constructs were also examined. Activation of the endogenous AR was measured in LNCaP human prostate cancer cells by measuring androgen-responsive reporters that contain androgen response elements (AREs) such as the PSA-luciferase reporter gene construct or the ARR3-luciferase reporter. LNCaP cells maintained as monolayers were transfected with PSA-luciferase and were used to screen the crude extracts prepared from marine sponges as well as some selected commercial compounds. […] R1881 (1 nM) was used to mediate ligand-dependent activation of the AR and concentrations of FSK (50 μM) were used to mediate ligand-independent activation of the AR.

AR [3] = molecular target: T2, AR; assay: ARR3-luciferase reporter in LNCaP cells; format: cell-based; parameters: LNCaP cells express endogenous AR and secrete prostate-specific antigen (PSA); endogenous in cells; host or cells: LNCaP; conditions: read-out: inhibition of R1881 activation of ARR31uc
From the text: LNCaP cells were employed initially for all experiments because they are well-differentiated human prostate cancer cells in which ligand-independent activation of the AR by FSK has been characterized (Nazareth et al 1996 J. Biol. Chem. 271, 19900-19907; and Sadar 1999 J. Biol. Chem. 274, 7777-7783). LNCaP cells express endogenous AR and secrete prostate-specific antigen (PSA) (Horoszewicz et al 1983 Cancer Res. 43, 1809-1818). LNCaP cells can be grown either as monolayers in cell culture or as tumors in the well-characterized xenograft model that progresses to androgen independence in castrated hosts (Sato et al 1996 J. Steroid Biochem. Mol. Biol. 58, 139-146; Gleave et al 1991 Cancer Res. 51, 3753-3761; Sato et al 1997 Cancer Res. 57, 1584-1589; and Sadar et al 2002 Mol. Cancer. Ther. 1(8), 629-637). […] Reporter specificity may be determined using several alternative reporter gene constructs. […]
To ensure that the inhibitory effects of PNG 01-185 extract on endogenous PSA protein was at the transcriptional level, reporter gene constructs were also examined. Activation of the endogenous AR was measured in LNCaP human prostate cancer cells by measuring androgen-responsive reporters that contain androgen response elements (AREs) such as the PSA-luciferase reporter gene construct or the ARR3-luciferase reporter. […]

LNCaP xenografts = assay: LNCaP subcutaneous xenografts in castrated mice; format: in vivo, NOD-SCID male mice; conditions: castrated mice
Description: Six to eight-week old male athymic SCID mice were inoculated subcutaneously in the flank region via a 27-gauge needle with a 150 μl suspension of LNCaP or PC3 human prostate cancer cells (1×10^6 cells). The inoculations took place while the animal was under isofluorane anaesthesia. The tumor take rate is approximately 75%. Mice bearing tumors of 100 mm^3 were randomly assigned to treatment groups. Castration was performed as described below. Tumor volume (formula: L×W×H×0.5236) was measured in mice bearing LNCaP subcutaneous tumors that became palpable or visible and at least 40 mm^3. The animals were monitored daily and tumors were measured every 5 days.

[4] = LNCaP, at 12.5 μM, read-out: inhibition of R1881 activation of p6.1luc

Compound `CC(C)(c1ccc(OCC(O)CO)cc1)c1ccc(OCC(O)CI)cc1` (centres unmarked) has an inhibition at 20 µM ([1]; LNCaP) of 7%, an inhibition at 12.5 µM (AR [2]; [4]) of 20% and an inhibition at 20 µM (AR [2]; LNCaP, at 20 μM, read-out: inhibition of R1881 activation of p6.1luc) of 33%.
`CC(C)(c1ccc(OCC(O)CO)cc1)c1ccc(OCC(O)CO)cc1` (centres unmarked) showed an inhibition at 50 µM (AR [3]) of 10%.
For `CC(C)(c1ccc(OCC(O)CCl)cc1)c1ccc(OCC(O)CCl)cc1` (racemic) [BADGE.2HCl, Racemic BADGE×2HCl], the “LNCaP tumor volume at start of treatment, intratumoral” value (LNCaP xenografts; I.T. delivery) was 109.6±17.4 mm^3, the “size of LNCaP xenograft tumors, intratumoral injection” value (LNCaP xenografts; I.T. every 5 days, 20 mg/kg body weight) was “reduced the size of the tumors” and the “LNCaP tumor volume at the duration (end) of the experiment, intratumoral” value (LNCaP xenografts; i.t. every 5 days, five doses) was 79.0±63.6 mm^3.
In the case of `CC(C)(c1ccc(OCC(O)CCl)cc1)c1ccc(OCC(O)CCl)cc1` (centres unmarked) [drawing 123], the inhibition at 12.5 µM ([1]; LNCaP, read-out: inhibition of Fsk activation of Ga14ARN, at 12.5 μM) is reported as 79%, the inhibition at 12.5 µM (AR [2]; [4]) is reported as 69% and the “inhibition of R1881 activation of p6.1luc” value (shortened to “inhibition … of p6.1luc”) (AR [2]; at 12.5 μM) is reported as 63%.
`CC(C)(c1ccc(OCC(O)CCl)cc1)c1ccc(OCC(O)CCl)cc1` (centres unmarked) [drawing 124] was tested, and the “inhibition of Fsk activation of Ga14ARN” value ([1]; at 12.5 μM) was 88%, the “inhibition … of p6.1luc” value (AR [2]; at 12.5 μM) was 55% and the “inhibition … of p6.1luc” value (AR [2]; concentration not given) was 34.8%.
For `CC(C)(c1ccc(OCC(O)CI)cc1)c1ccc(OCC(O)CI)cc1` (centres unmarked) [drawing 125], the inhibition at 20 µM ([1]; LNCaP) was 33%, the inhibition at 12.5 µM (AR [2]; [4]) was 35% and the “inhibition … of p6.1luc” value (AR [2]; at 12.5 μM) was 33%.
With `CC(C)(c1ccc(OCC(O)CI)cc1)c1ccc(OCC(O)CI)cc1` (centres unmarked) [drawing 126] the “inhibition … of p6.1luc” value (AR [2]; at 12.5 μM) was 42% and 29%.
